Common to all, as to conditions: read-out: K1; phosphate buffer pH 7.6, 25 °C; stronger site of two-site fit
Assay [1] deals with PfRKIP (Plasmodium falciparum, UniProt Q7KQK1, P80L).
For assay [2], the target named is PfRKIP (Plasmodium falciparum, UniProt Q7KQK1, S96A).
A further assay addresses HsRKIP (Homo sapiens, UniProt P30086). As to the kind of experiment: ITC, sequential binding model.
The target of assay [3] is T1, PfRKIP (Plasmodium falciparum, UniProt Q7KQK1).
T1 sequence (Q7KQK1 1-190): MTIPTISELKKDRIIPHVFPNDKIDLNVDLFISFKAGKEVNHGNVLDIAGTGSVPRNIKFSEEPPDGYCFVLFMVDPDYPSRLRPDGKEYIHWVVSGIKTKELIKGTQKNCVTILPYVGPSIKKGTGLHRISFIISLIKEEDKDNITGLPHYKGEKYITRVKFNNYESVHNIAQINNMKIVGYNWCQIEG
Put plainly: ITC, sequential binding model. For orientation: ITC needs no label: the signal is the heat of the interaction.

For assay [4], the target named is PfRKIP (Plasmodium falciparum, UniProt Q7KQK1, H92A).

Chain of HsRKIP (P30086 whole entry): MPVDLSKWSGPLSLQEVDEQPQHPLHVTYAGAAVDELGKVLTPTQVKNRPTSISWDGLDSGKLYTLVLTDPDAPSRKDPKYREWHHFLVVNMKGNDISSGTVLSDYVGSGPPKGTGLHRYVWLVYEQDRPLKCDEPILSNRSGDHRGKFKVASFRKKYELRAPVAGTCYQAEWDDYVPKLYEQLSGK

Turning to `CCCCCCCCCCCCCCCC(=O)OC[C@H](COP(=O)(O)O[C@@H]1[C@H](O)[C@H](OP(=O)(O)O)[C@@H](O)[C@H](O)[C@H]1O)OC(=O)CCCCCCCCCCCCCCC` [PtdIns(3)P], the Kd on PfRKIP [1] was 109 µM; on PfRKIP [2], 15.6 µM; at HsRKIP it was 43.5 µM; at PfRKIP [3] it was 11.5 µM; on PfRKIP [4], 15.6 µM.

Values taken from article doi:10.1101/2023.08.23.554426v1 (biorxiv, 2023).
